IC50 and GI50 data for 17 compounds are collected here from patent publication US11254676B2, “Pyrazole derivative compound and use thereof” (HANMI PHARM. CO., LTD., priority 2017, dated 2022).

Structures are written as SMILES.

One assay has as its target LSD1 (Homo sapiens (Human), UniProt O60341). Nature of the assay: LSD1 histone demethylase inhibition, LSD1 fluorescence analysis kit (BPS Bioscience). It counts as biochemical. Particulars: H2O2/HRP/Amplex Red fluorescence readout. An excerpt: The results are expressed as an IC50 value. As for a control, GSK2879552 (available from GlaxoSmithKline USA) was used.
As to `O=C(O)c1ccc(CN2CCC(CN[C@@H]3C[C@H]3c3ccccc3)CC2)cc1` [Control, GSK2879552, reference compound], the 50% inhibitory concentration (IC50) was found to be 311 nM.
`CN[C@@H]1CCCN(C(=O)c2cc(-c3ccc(C#N)c(F)c3)n(-c3ccc(C4CC4)cc3F)n2)C1` [Example 6, (R)-4-(1-(4-cyclopropyl-2-fluorophenyl)-3-(3-(methylamino)piperidine-1-carbonyl)-1H-pyrazole-5-yl)-2-fluorobenzonitrile] had an IC50 of 21 nM.

The test system of the next assay is NCI-H1417 cells. As to the kind of experiment: Cell growth suppression test, CellTiter-Glo Luminescent Cell Viability Assay. The format is cell-based. Particulars: Homo sapiens, 240 h; NCI-H1417 cells treated for 10 days. How it is done: Cell growth suppression effects of the synthesized compounds on NCI-H1417 cells were identified. The cells were treated with the synthesized compounds for 10 days. Then, in order to test the cell growth suppression, CellTiter-Glo Luminescent Cell Viability Assay (available from Promega, USA) was used. This test is to measure emission signals proportional to the number of ATPs based on a fixed amount of ATPs, which represents the presence of metabolically active cells, thereby determining the number of viable cells. The results are expressed as a GI50 value. As for a control, GSK2879552 (available from GlaxoSmithKline USA) was used.
For orientation: Cellular ATP, detected with luciferase, serves as a proxy for viable cell number.
`O=C(O)c1ccc(CN2CCC(CN[C@@H]3C[C@H]3c3ccccc3)CC2)cc1` [Control, GSK2879552, reference compound] returned a GI50 of 591 nM.
`CN[C@@H]1CCCN(C(=O)c2cc(-c3ccc(C#N)c(F)c3)n(-c3ccc(C4CC4)cc3F)n2)C1` [Example 6, (R)-4-(1-(4-cyclopropyl-2-fluorophenyl)-3-(3-(methylamino)piperidine-1-carbonyl)-1H-pyrazole-5-yl)-2-fluorobenzonitrile]: the GI50 turned out to be 48 nM.
In turn, `CN[C@@H]1CCCN(C(=O)c2cc(-c3ccc(C#N)c(F)c3)n(-c3ccc(N4CC[C@@H](OC)C4)cc3F)n2)C1` [Example 70, 2-fluoro-4-(1-(2-fluoro-4-((R)-3-methoxypyrrolidine-1-yl)phenyl)-3-((R)-3-(methylamino)piperidine-1-carbonyl)-1H-pyrazole-5-yl)benzonitrile] displayed a GI50 of 18 nM.
Regarding `CCO[C@H]1CCN(c2ccc(-n3nc(C(=O)N4CCC[C@@H](NC)C4)cc3-c3ccc(C#N)c(F)c3)c(F)c2)C1` [Example 71, 2-fluoro-4-(1-(2-fluoro-4-((S)-3-ethoxypyrrolidine-1-yl)phenyl)-3-((R)-3-(methylamino)piperidine-1-carbonyl)-1H-pyrazole-5-yl)benzonitrile], halving of growth (GI50) required 10 nM.
Take `N#Cc1ccc(-c2cc(C(=O)N3CCC[C@@H](N)C3)nn2-c2ccc(N3CCC(O)C3)cc2F)cc1F` (stereo partly drawn) [Example 72, 4-(3-((R)-3-aminopiperidine-1-carbonyl)-1-(2-fluoro-4-(3-hydroxypyrrolidine-1-yl)phenyl)-1H-pyrazole-5-yl)-2-fluorobenzonitrile]: it took 38 nM to inhibit growth by half (GI50). Compared with the last compound, the GI50 is about 3.8-fold higher.
On the same count and under the same terms, in the case of `CN[C@@H]1CCCN(C(=O)c2cc(-c3ccc(C#N)c(F)c3)n(-c3ccc(N4CC[C@H](Cl)C4)cc3F)n2)C1` [Example 73, 2-fluoro-4-(1-(2-fluoro-4-((S)-3-chloropyrrolidine-1-yl)phenyl)-3-((R)-3-(methylamino)piperidine-1-carbonyl)-1H-pyrazole-5-yl)benzonitrile] it was 39 nM; in that of `N#Cc1ccc(-c2cc(C(=O)N3CCC[C@@H](N)C3)nn2-c2c(F)cc(N3CCCC3)cc2F)cc1F` [Example 74, (R)-4-(3-(3-aminopiperidine-1-carbonyl)-1-(2,6-difluoro-4-(pyrrolidine-1-yl)phenyl)-1H-pyrazole-5-yl)-2-fluorobenzonitrile], 8.8 nM.
As for `N#Cc1ccc(-c2cc(C(=O)N3CCC[C@@H](N)C3)nn2-c2ccc(N3CCCC3)cc2Cl)cc1F` [Example 75, (R)-4-(3-(3-aminopiperidine-1-carbonyl)-1-(2-chloro-4-(pyrrolidine-1-yl)phenyl)-1H-pyrazole-5-yl)-2-fluorobenzonitrile], halving of growth (GI50) required 52 nM.
On to `COc1cc(N2CCCC2)ccc1-n1nc(C(=O)N2CCC[C@@H](N)C2)cc1-c1ccc(C#N)c(F)c1` [Example 76, (R)-4-(3-(3-aminopiperidine-1-carbonyl)-1-(2-methoxy-4-(pyrrolidine-1-yl)phenyl)-1H-pyrazole-5-yl)-2-fluorobenzonitrile], for which growth was halved (GI50) at 43 nM.
The same measure, in the same setting: the figure for `N#Cc1ccc(-c2cc(C(=O)N3CCC[C@@H](N)C3)nn2-c2ccc(N3CCCCC3)cc2F)cc1` [Example 77, (R)-4-(3-(3-aminopiperidine-1-carbonyl)-1-(2-fluoro-4-(piperidine-1-yl)phenyl)-1H-pyrazole-5-yl)benzonitrile] is 67 nM; for `N#Cc1ccc(-c2cc(C(=O)N3CCC[C@@H](N)C3)nn2-c2ccc(N3CCCCC3)cc2F)cc1F` [Example 78, (R)-4-(3-(3-aminopiperidine-1-carbonyl)-1-(2-fluoro-4-(piperidine-1-yl)phenyl)-1H-pyrazole-5-yl)-2-fluorobenzonitrile] it is 34 nM; for `CC1CC(C)CN(c2ccc(-n3nc(C(=O)N4CCC[C@@H](N)C4)cc3-c3ccc(C#N)c(F)c3)c(F)c2)C1` (stereo partly drawn) [Example 82, 4-(3-((R)-3-aminopiperidine-1-carbonyl)-1-(4-(3,5-dimethylpiperidine-1-yl)-2-fluorophenyl)-1H-pyrazole-5-yl)-2-fluorobenzonitrile] it is 119 nM.
On the same count and under the same terms, in the case of `N#Cc1ccc(-c2cc(C(=O)N3CCC[C@@H](N)C3)nn2-c2ccc(N3CCC(N4CCCCC4)CC3)cc2F)cc1F` [Example 83, (R)-4-(1-(4-([1,4′-bipiperidine]-1′-yl)-2-fluorophenyl)-3-(3-aminopiperidine-1-carbonyl)-1H-pyrazole-5-yl)-2-fluorobenzonitrile] it was 71 nM; in that of `N#Cc1ccc(-c2cc(C(=O)N3CCCC[C@@H](N)C3)nn2-c2ccc(N3CCCCC3)cc2F)cc1F` [Example 84, (R)-4-(3-(3-aminoazepane-1-carbonyl)-1-(2-fluoro-4-(piperidine-1-yl)phenyl)-1H-pyrazole-5-yl)-2-fluorobenzonitrile], 84 nM; in that of `N#Cc1ccc(-c2cc(C(=O)N3CCC[C@@H](N)C3)nn2-c2ccc3c(c2)CCC3)cc1` [Example 87, (R)-4-(3-(3-aminopiperidine-1-carbonyl)-1-(2,3-dihydro-1H-indane-5-yl)-1H-pyrazole-5-yl)benzonitrile], 142 nM.
Turning to `N#Cc1ccc(-c2cc(C(=O)N3CCC[C@@H](N)C3)nn2-c2ccc3c(c2)CCC3)cc1F` [Example 88, (R)-4-(3-(3-aminopiperidine-1-carbonyl)-1-(2,3-dihydro-1H-inden-5-yl)-1H-pyrazole-5-yl)-2-fluorobenzonitrile], the GI50 amounted to 173 nM.
`CN[C@@H]1CCCN(C(=O)c2cc(-c3ccc(C#N)cc3)n(-c3ccc4c(c3)CCC4)n2)C1` [Example 89, (R)-4-(1-(2,3-dihydro-1H-inden-5-yl)-3-(3-(methylamino)piperidine-1-carbonyl)-1H-pyrazole-5-yl)benzonitrile] yielded a 50% growth inhibitory concentration (GI50) of 71 nM. Compared with the last compound, the GI50 is about 2.4-fold lower.

Usually IC50 stands for the concentration needed to halve the response being measured. As usually defined, the GI50 is the concentration giving 50% growth inhibition.
